From patent publication US8716252B2, “(Methylsulfonyl) ethyl benzene isoindoline derivatives and their pharmaceutical uses” (Celgene Corporation, priority 2009, dated 2014)

melting point: 135 to 137 °C
Structure (SMILES): CCOc1cc([C@@H](CS(C)(=O)=O)N2Cc3cccc(N)c3C2=O)ccc1OC [Example 5.5, 7-amino-2-[(1S)-1-(3-ethoxy-4-methoxy-phenyl)-2-methanesulfonyl-ethyl]-2,3-dihydro-isoindol-1-one]
